Experiments:
[1] = test system: strain sAA2178; test: Production of DDDA using sucrose or dextrose as co-feed (Example 68); assay type: cell-based, Candida; details: co-feed 0.9 g/L-h; for production of DDDA: ethyl laurate feed, three fermentations averaged
Experimental: A pre-culture of 80 mL SP92 in a 500 mL baffled flask with foam plugs was inoculated with 1.0 mL from a frozen glycerol stock of strain sAA2178 (beta-oxidation blocked strains plus amplified CPRB, CYP52A19, ADH2a, ADH8, and HFD2) and incubated for 24 h at 30° C. and 250 RPM. […] Growth was initiated an inoculum of pre-culture to an initial OD600nm=1.0 and growth conditions of 35° C., 1000 rpm, 1 vvm, pH 5.8. Growth continued for approximately 10-12 h at which point the conversion phase was initiated by a continuous feed of ethyl laurate. […] The data from three fermentations were averaged for the comparison.

[2] = test system: strain sAA2178; test: Production of DDDA with glycerol or xylose substituted for dextrose as co-feed (Example 69); assay type: cell-based, Candida; details: co-feed 1.25 g/L-h; for production of DDDA: ethyl laurate feed
Experimental: A pre-culture of 80 mL SP92 in a 500 mL baffled flask with foam plugs was inoculated with 1.0 mL from a frozen glycerol stock of strain sAA2178 (beta-oxidation blocked strains plus amplified CPRB, CYP52A19, ADH2a, ADH8, and HFD2) and incubated for 24 h at 30° C. and 250 RPM. […] Growth was initiated with an inoculum of pre-culture to an/initial OD600nm=1.0 and growth conditions of 35° C., 1000 rpm, 1 vvm; pH 5.8. Growth continued for approximately 10-12 h at which point the conversion phase was initiated by a continuous feed of ethyl laurate. Ethyl laurate was fed at a rate of 0.75 g/L-h for the first 24 h; 1.28 g/L-h from 24 h to termination. In addition, a co-feed of either dextrose, glycerol or xylose was fed at a rate of 1.25 g/L-h for all fermentations.

[3] = test system: strain sAA1082; details: ethanol co-feed 0.7 g/L-h
Experimental: Fermentation medium (MM1) at pH 5.8 was filter sterilized and transferred to a sterile fermentation vessel. For the control, dextrose was used for both growth and co-feed. For the experimental fermentations, glycerol or xylose was substituted oh a g/g basis for dextrose in both the growth medium (MM1) and in the co-feed. Growth was initiated with an inoculum of pre-culture to an initial OD600nm=1.0 and growth conditions of 35° C., 1000 rpm, 1 vvm, pH 5.8. Growth continued for approximately 10-12 h at which point the conversion phase was initiated by a continuous feed of methyl laurate. Methyl laurate was fed at a rate of 0.7 g/L-h for the first 24 h; 1.2 g/L-h from 24 h to termination. In addition, a co-feed of ethanol was fed at a rate of 0.7 g/L-h. The ethanol feed-rate was reduced relative to what would normally be used for glucose (1.2 g/l-h), since ethanol is theoretically a more energy-rich compound. At induction, the temperature was changed to 30° C. and the pH was maintained at 6.0 by addition of 6N KOH.

[4] = test system: Candida strain ATTC 20962; test: Shake flask bioconversion of feedstocks of varying chain length (Example 72); assay type: cell-based; details: ethyl esters 1% v/v, alkanes 3% v/v
Experimental: (§1) The bioconversion tests in this Example were undertaken following a shake flask protocol. […] The YPD contained 10 g/L yeast extract, 20 g/L peptone, and 20 g/L dextrose. These cultures were then placed in a 30° C. shaking incubator at 250 rpm for 18 to 20 hours.
(§2) After this growth phase, these cultures were used to inoculate 350 ml of SP92-glycerol media dispensed into 10-250 ml wide mouth flasks in 35 ml aliquots for each strain. The SP92-glycerol media contained 6.7 g/L yeast nitrogen base, 3 g/L yeast extract, 3 g/L ammonium sulfate, 1 g/L potassium phosphate monobasic; 1 g/L potassium phosphate, dibasic, and 75 g/L glycerol (Picataggio S., et al., Biotechnology (NY) 1992 August; 10 (8):894-8). The cultures were then placed in a 30° C. shaking incubator at 300 rpm for 20 to 24 hours.
(§3) The cells were then centrifuged for 5 minutes at 3000 rpm and the supernatant discarded. The cells were resuspended in DCA3 medium supplemented with 1.0% triton-X100. DCA3 is a 0.3 M potassium phosphate buffer, pH 7.5 containing 6.7 g/L yeast nitrogen base and 50 g/L glycerol. Variations of DCA3 media recipes are known, non-limiting examples of which include the addition of dextrose and/or glycerol, the like or combinations thereof. DCA3 media, as referred to herein, can include dextrose and/or glycerol. After re-suspension, the OD600 nm for each culture was adjusted to a common OD (based on the available OD for the strain with the least growth) and 10 ml was transferred to pre-weighed 250 ml bottom baffled shake flasks. The flasks were then reweighed to determine the starting weight of the culture. The substrate to be converted was then added at 1% v/v for ethyl esters and 3% v/v for alkanes. The increased amount of alkanes added was due to their volatility to ensure that sufficient substrate remained in solution for bioconversion. The flasks were weighed once more to determine the exact amount of substrate added to each flask and were then placed, in a 30° C. shaking incubator at 300 rpm for 4 hours. Bioconversion tests for ethyl-stearate and ethyl palmitate were performed at 35° C. due to melting point limitations for these substrates.
(§4) After 48 hours, the flasks were weighed once more to determine the weight of the final culture. The cultures were mixed well by swirling and 1 ml was transferred to a pre-weighed 15 ml falcon tube containing 0.8 ml of 6N HCl. The tube was weighed to determine the density of the final culture and this number used to determine the culture volume present at the final time point. Samples were submitted to analytical for analysis by GC.

[5] = test system: sAA1082; test: as above; assay type: cell-based, Candida; details: for Feedstock Yield (g diacid/g added feedstock) sAA-1082: shake flask, ethyl esters 1% v/v, alkanes 3% v/v
Experimental: as §1, §2, §3, §4

[6] = test system: sAA2178; test: as above; assay type: cell-based, Candida; details: for Feedstock Yield (g diacid/g added feedstock) sAA-2178: shake flask, ethyl esters 1% v/v, alkanes 3% v/v
Experimental: as §1, §2, §3, §4

`O=C[C@H](O)[C@@H](O)[C@H](O)[C@H](O)CO` [dextrose] was tested, and the lauric acid accumulated [1] was 0.52 g/L, the “production of DDDA” value [1] was 0.872 g/L-h and the HFA levels [2] was 1.24 g/L. For the same compound, the lauric acid accumulated [2] was 0.37 g/L and the “production of DDDA” value [2] was 0.825 g/L-h.
`CCO` [ethanol] was tested, and the “accumulation of HFA” value [3] was 5.3 g/L, the “accumulation of lauric acid” value [3] was 8.5 g/L and the “accumulation of methyl laurate” value [3] was 38 g/L. It also gave a DDDA productivity ([3]; methyl laurate feed) of 0.446 gL.
With `OCC(O)CO` [glycerol] the HFA levels [2] was 0.33 g/L, the lauric acid accumulated [2] was 12.28 g/L and the “production of DDDA, less than with dextrose” value (“production of DDDA, less than” below) [2] was “about 60%”. For the same compound, the “production of DDDA” value [2] was 0.327 g/L-h.
In the case of `CCCCCCCCCCCCC` [n-Tridecane], the “Feedstock Yield (g diacid/g added feedstock) ATTC-20962” value [4] was 0.680 g diacid/g added feedstock, the “% improvement over ATTC 20962 sAA-1082” value [5] was 38.3% and the “Feedstock Yield (g diacid/g added feedstock) sAA-1082” value [5] was 0.941 g diacid/g added feedstock. The “% improvement over ATTC 20962 sAA-2178” value [6] was 27.7% and the “Feedstock Yield (g diacid/g added feedstock) sAA-2178” value [6] was 0.868 g diacid/g added feedstock.
`CCCCCCCCCCC` [n-Undecane] was tested, and the “Feedstock Yield (g diacid/g added feedstock) ATTC-20962” value [4] was 0.312 g diacid/g added feedstock, the “% improvement over ATTC 20962 sAA-1082” value [5] was 23.7% and the “Feedstock Yield (g diacid/g added feedstock) sAA-1082” value [5] was 0.386 g diacid/g added feedstock. The “% improvement over ATTC 20962 sAA-2178” value [6] was 29.3% and the “Feedstock Yield (g diacid/g added feedstock) sAA-2178” value [6] was 0.403 g diacid/g added feedstock.
For `CCCCCCCCCCCCCCCCC` [n-heptadecane], the “Feedstock Yield (g diacid/g added feedstock) ATTC-20962” value [4] was 0.473 g diacid/g added feedstock, the “% improvement over ATTC 20962 sAA-1082” value [5] was 17.3% and the “Feedstock Yield (g diacid/g added feedstock) sAA-1082” value [5] was 0.555 g diacid/g added feedstock. For the same compound, the “% improvement over ATTC 20962 sAA-2178” value [6] was 8.6% and the “Feedstock Yield (g diacid/g added feedstock) sAA-2178” value [6] was 0.514 g diacid/g added feedstock.
`CCCCCCCCCCCCCCC` [n-pentadecane] was tested, and the “Feedstock Yield (g diacid/g added feedstock) ATTC-20962” value [4] was 0.505 g diacid/g added feedstock, the “% improvement over ATTC 20962 sAA-1082” value [5] was 33.1% and the “Feedstock Yield (g diacid/g added feedstock) sAA-1082” value [5] was 0.673 g diacid/g added feedstock. For the same compound, the “% improvement over ATTC 20962 sAA-2178” value [6] was 16.8% and the “Feedstock Yield (g diacid/g added feedstock) sAA-2178” value [6] was 0.590 g diacid/g added feedstock.
For `OC[C@H]1O[C@@](CO)(O[C@H]2O[C@H](CO)[C@@H](O)[C@H](O)[C@H]2O)[C@@H](O)[C@@H]1O` [sucrose], the lauric acid accumulated [1] was 1.56 g/L, the “production of DDDA, less than” value [1] was “about 3%” and the “production of DDDA” value [1] was 0.847 g/L-h.
In the case of `O=C[C@H](O)[C@@H](O)[C@H](O)CO` [xylose], the HFA levels [2] was 0.20 g/L, the lauric acid accumulated [2] was 19.04 g/L and the “production of DDDA, less than” value [2] was “about 75%”. The “production of DDDA” value [2] was 0.211 g/L-h.

— patent US20190010524A1, “BIOLOGICAL METHODS FOR PREPARING A FATTY DICARBOXYLIC ACID” (Verdezyne, Inc., priority 2012, published 2019)
